Legend:
Experiment in all cases: Greenhouse whole-plant imazapir dose response (Example 8)
Assay type in all cases: in vivo, Helianthus annuus
[1] = test system: sunflower GIM 5-7 (Manteiner Line, A205V); details: GIM5-7, 14 DAT
Experimental: (§1) A greenhouse study was conducted to quantify and contrast the imazapir sensitivity of the mutants A122T and A205V in different genetic backgrounds at the whole plant level in sunflower. Seeds of the different sunflower lines that were used in this study were obtained under field conditions.
(§2) Seeds were sown in Petri dishes and, after germination, plantlets were transplanted to pots of 10 cm of diameter in a potting media consisting of equal parts of vermiculite, soil and sand. Plants were grown in a greenhouse under natural light conditions supplemented with 400 W sodium halide lamps to provide a 16 hrs daylength. Day/night temperatures were 25 and 20° C., respectively. At the V2 stage 10 plants of each genotype were randomly assigned to each treatment consisting of […] imazapir doses (0, 40, 80, 160, 240, 320, 400 and 480 g ai/ha), and a zero-time biomass determination. Experiment was arranged as a randomized block design with a full factorial (sunflower line×treatment) arrangement of treatments and 10 replications.
(§3) On the day of herbicide application ten plants of each genotype were cut at the cotyledonal node and dried at 60° C. for 48 hrs zero-time for dried weight determination. […] Height was determined as the distance between the cotyledonal node and the apex of each plant. For root biomass determination, each plant was taken from the pot and the potting media was washed out from the roots. Above ground biomass data from each line were converted to biomass accumulation after application by subtracting the appropriate average zero-time biomass from each sample. Dry biomass data were converted to percentages of the untreated control plants within each line to allow direct comparisons between groups.

[2] = test system: sunflower IR79 (Restorer Line, A205V); details: 14 DAT
Experimental: as §1, §2, §3

[3] = test system: sunflower TH6 (Hybrid, A122T); details: 14 DAT
Experimental: as §1, §2, §3

[4] = test system: sunflower TH9 (Hybrid, A205V); details: 14 DAT
Experimental: as §1, §2, §3

## CC(C)C1(C)N=C(c2ncccc2C(=O)O)NC1=O (centres unmarked) [imazapir, imazapyr]
[1]; 0.5× (40 g ai/ha)
  biomass accumulation (dry biomass, % of untreated): 92.9%
  plant height (% of untreated): 79.1%
  root dry weight (% of untreated): 79.2%
[1]; 1× (80 g ai/ha)
  biomass accumulation (dry biomass, % of untreated): 75.1%
  plant height (% of untreated): 76.7%
  root dry weight (% of untreated): 56.3%
[1]; 2× (160 g ai/ha)
  biomass accumulation (dry biomass, % of untreated): 55.1%
  plant height (% of untreated): 57.7%
  root dry weight (% of untreated): 40.6%
[1]; 3× (240 g ai/ha)
  biomass accumulation (dry biomass, % of untreated): 45.6%
  plant height (% of untreated): 55.3%
  root dry weight (% of untreated): 40.2%
[1]; 4× (320 g ai/ha)
  biomass accumulation (dry biomass, % of untreated): 31.8%
  plant height (% of untreated): 27.3%
  root dry weight (% of untreated): 34.0%
[1]; 5× (400 g ai/ha)
  biomass accumulation (dry biomass, % of untreated): 34.2%
  plant height (% of untreated): 37.2%
  root dry weight (% of untreated): 48.5%
[1]; 6× (480 g ai/ha)
  biomass accumulation (dry biomass, % of untreated): 36.8%
  plant height (% of untreated): 30.0%
  root dry weight (% of untreated): 43.1%
[2]; 0.5× (40 g ai/ha)
  biomass accumulation (dry biomass, % of untreated): 94.4%
  plant height (% of untreated): 92.8%
  root dry weight (% of untreated): 98.6%
[2]; 1× (80 g ai/ha)
  biomass accumulation (dry biomass, % of untreated): 74.0%
  plant height (% of untreated): 80.9%
  root dry weight (% of untreated): 53.4%
[2]; 2× (160 g ai/ha)
  biomass accumulation (dry biomass, % of untreated): 67.7%
  plant height (% of untreated): 74.9%
  root dry weight (% of untreated): 42.5%
[2]; 3× (240 g ai/ha)
  biomass accumulation (dry biomass, % of untreated): 49.1%
  plant height (% of untreated): 55.7%
  root dry weight (% of untreated): 38.4%
[2]; 4× (320 g ai/ha)
  biomass accumulation (dry biomass, % of untreated): 44.5%
  plant height (% of untreated): 52.8%
  root dry weight (% of untreated): 31.5%
[2]; 5× (400 g ai/ha)
  biomass accumulation (dry biomass, % of untreated): 40.1%
  plant height (% of untreated): 41.7%
  root dry weight (% of untreated): 23.3%
[2]; 6× (480 g ai/ha)
  biomass accumulation (dry biomass, % of untreated): 35.3%
  plant height (% of untreated): 33.2%
  root dry weight (% of untreated): 21.9%
[3]; 0.5× (40 g ai/ha)
  Phytotoxicity Index: 0.5
  biomass accumulation (dry biomass, % of untreated): 100%
  plant height (% of untreated): 99.2%
  root dry weight (% of untreated): 100%
[3]; 1× (80 g ai/ha)
  Phytotoxicity Index: 0.5
  biomass accumulation (dry biomass, % of untreated): 97.2%
  plant height (% of untreated): 98.6%
  root dry weight (% of untreated): 98.1%
[3]; 2× (160 g ai/ha)
  Phytotoxicity Index: 0.5
  biomass accumulation (dry biomass, % of untreated): 97.9%
  plant height (% of untreated): 100.3%
  root dry weight (% of untreated): 96.2%
[3]; 3× (240 g ai/ha)
  Phytotoxicity Index: 0.5
  biomass accumulation (dry biomass, % of untreated): 98.2%
  plant height (% of untreated): 99.6%
  root dry weight (% of untreated): 79.3%
[3]; 4× (320 g ai/ha)
  Phytotoxicity Index: 0.5
  biomass accumulation (dry biomass, % of untreated): 97.8%
  plant height (% of untreated): 101.0%
  root dry weight (% of untreated): 78.4%
[3]; 5× (400 g ai/ha)
  Phytotoxicity Index: 0.5
  biomass accumulation (dry biomass, % of untreated): 85.1%
  plant height (% of untreated): 87.0%
  root dry weight (% of untreated): 85.8%
[3]; 6× (480 g ai/ha)
  Phytotoxicity Index: 0.5
  biomass accumulation (dry biomass, % of untreated): 79.5%
  plant height (% of untreated): 79.6%
  root dry weight (% of untreated): 57.3%
[4]; 0.5× (40 g ai/ha)
  Phytotoxicity Index: 0
  biomass accumulation (dry biomass, % of untreated): 91.7%
  plant height (% of untreated): 100.0%
  root dry weight (% of untreated): 81.5%
[4]; 1× (80 g ai/ha)
  Phytotoxicity Index: 0
  biomass accumulation (dry biomass, % of untreated): 81.7%
  plant height (% of untreated): 100.0%
  root dry weight (% of untreated): 84.9%
[4]; 2× (160 g ai/ha)
  Phytotoxicity Index: 1.6
  biomass accumulation (dry biomass, % of untreated): 54.7%
  plant height (% of untreated): 78.9%
  root dry weight (% of untreated): 58.8%
[4]; 3× (240 g ai/ha)
  Phytotoxicity Index: 5.1
  biomass accumulation (dry biomass, % of untreated): 35.7%
  plant height (% of untreated): 50.0%
  root dry weight (% of untreated): 34.1%
[4]; 4× (320 g ai/ha)
  Phytotoxicity Index: 8.4
  biomass accumulation (dry biomass, % of untreated): 25.3%
  plant height (% of untreated): 38.1%
  root dry weight (% of untreated): 27.3%
[4]; 5× (400 g ai/ha)
  Phytotoxicity Index: 8.9
  biomass accumulation (dry biomass, % of untreated): 19.8%
  plant height (% of untreated): 31.8%
  root dry weight (% of untreated): 29.9%
[4]; 6× (480 g ai/ha)
  Phytotoxicity Index: 8.9
  biomass accumulation (dry biomass, % of untreated): 19.5%
  plant height (% of untreated): 34.7%
  root dry weight (% of untreated): 22.1%
